US7132546B2, “Aniline derivatives or salts thereof and cytokine production inhibitors containing the same” (Ishihara Sangyo Kaisha, Ltd., priority 2000, dated 2006)

What was measured:
[1] = tested on: interleukin 5 (IL-5) production; assay: Cytokine production inhibitory effect: IL-5 production by murine spleen cells treated with anti-mouse CD3 antibody and IL-2 (ELISA); format: cell-based, Balb/c mice; settings: test compound 100 ppm, anti-CD3 antibody + IL-2, 40 to 48 hours, read-out: IL-5 production inhibitory ratio (%)
[2] = tested on: interferon γ (IFN-γ) production; assay: Cytokine production inhibitory effect: IFN-γ production by murine spleen cells treated with anti-mouse CD3 antibody and IL-2 (ELISA); format: cell-based, Balb/c mice; settings: test compound 100 ppm, anti-CD3 antibody + IL-2, 40 to 48 hours, read-out: IFN-γ production inhibitory ratio (%)

Structure (SMILES) | melting point | inhibition at 100 ppm [1] | inhibition at 100 ppm [2]
COC(=O)c1cc(Oc2ncc(C(F)(F)F)cc2Cl)ccc1NC(=O)c1cc([N+](=O)[O-])ccc1Cl [compound 100] | 154 to 158 °C | 92% | 93%
O=C(Nc1ccc(Oc2ncc(C(F)(F)F)cc2Cl)cc1C(=O)O)c1cc([N+](=O)[O-])ccc1Cl [compound 101] | 240 to 245 °C | 100% | 100%
Cc1cc(Oc2ncc(C(F)(F)F)cc2Cl)c(C)cc1NC(=O)c1cc([N+](=O)[O-])ccc1Cl [compound 105] | 296 to 298 °C | 55% | 25%
COC(=O)c1cc(NC(=O)c2cc([N+](=O)[O-])ccc2Cl)ccc1Oc1ncc(C(F)(F)F)cc1Cl [compound 107] | 226 to 229 °C | 99% | 97%
COc1cc(NC(=O)c2cc([N+](=O)[O-])ccc2Cl)ccc1Oc1ncc(C(F)(F)F)cc1Cl [compound 109] | 190 to 193 °C | 100% | 95%
O=C(Nc1cc(Cl)c(Oc2ncc(C(F)(F)F)cc2Cl)c(Cl)c1)c1cc([N+](=O)[O-])ccc1Cl [compound 112] | 189 to 191 °C | 100% | 100%
O=C(Nc1ccc(Oc2ncc(C(F)(F)F)cc2Cl)c(Cl)c1)c1cc([N+](=O)[O-])ccc1Cl [compound 113] | 222 to 225 °C | 96% | 97%
NC(=O)c1cc(NC(=O)c2cc([N+](=O)[O-])ccc2Cl)ccc1Oc1ncc(C(F)(F)F)cc1Cl [compound 116] | 239 to 244 °C | 100% | 99%
Cc1cc(NS(=O)(=O)c2cc([N+](=O)[O-])ccc2Cl)ccc1Oc1ncc(C(F)(F)F)cc1Cl [compound 117] | 233 to 236 °C | 100% | 100%
Cc1cc(NC(=O)c2cc(C#N)ccc2Cl)ccc1Oc1ncc(C(F)(F)F)cc1Cl [compound 118] | 221 to 223 °C | 78% | 47%
Cc1cc(NC(=O)c2cc([N+](=O)[O-])ccc2F)ccc1Oc1ncc(C(F)(F)F)cc1Cl [compound 119] | 179 to 181 °C | 100% | 99%
Cc1cc(NC(=O)c2cc([N+](=O)[O-])ccc2Br)ccc1Oc1ncc(C(F)(F)F)cc1Cl [compound 120] | 246 to 248 °C | 84% | 35%
Nc1cc(NC(=O)c2cc([N+](=O)[O-])ccc2Cl)ccc1Oc1ncc(C(F)(F)F)cc1Cl [compound 121] | 235 to 237 °C | 97% | 100%
N#Cc1cc(NC(=O)c2cc([N+](=O)[O-])ccc2Cl)ccc1Oc1ncc(C(F)(F)F)cc1Cl [compound 122] | 194 to 198 °C | 100% | 100%
CC(=O)Nc1cc(NC(=O)c2cc([N+](=O)[O-])ccc2Cl)ccc1Oc1ncc(C(F)(F)F)cc1Cl [compound 125] | 203 to 205 °C | 100% | 100%
O=C(Nc1ccc(Oc2ncc(C(F)(F)F)cc2Cl)c(O)c1)c1cc([N+](=O)[O-])ccc1Cl [compound 126] | 194 to 197 °C | 100% | 100%
CN(C)c1cc(NC(=O)c2cc([N+](=O)[O-])ccc2Cl)ccc1Oc1ncc(C(F)(F)F)cc1Cl [compound 128] | 208 to 213 °C | 96% | 93%
CN(c1cc(NC(=O)c2cc([N+](=O)[O-])ccc2Cl)ccc1O)c1ncc(C(F)(F)F)cc1Cl [compound 129] | 273 to 276 °C | 86% | 67%
O=C(Nc1ccc(Oc2ncc(C(F)(F)F)cc2Cl)c(N2CCCC2)c1)c1cc([N+](=O)[O-])ccc1Cl [compound 130] | 235 to 237 °C | 100% | 99%
O=C(Nc1ccc(Oc2ncc(C(F)(F)F)cc2Cl)c(N2CCCCC2)c1)c1cc([N+](=O)[O-])ccc1Cl [compound 131] | 194 to 198 °C | 100% | 100%
O=C(Nc1nc2ccccc2s1)c1cc([N+](=O)[O-])ccc1Cl [compound 143] | 221 to 227 °C | 97% | 100%
O=C(Nc1ccc(=O)n(-c2ncc(C(F)(F)F)cc2Cl)c1)c1cc([N+](=O)[O-])ccc1Cl [compound 144] | 116 °C | 99% | 100%
Cc1cc(NC(=O)c2cc([N+](=O)[O-])ccc2Cl)ccc1Nc1ncc(C(F)(F)F)cc1Cl [compound 148] | 189 to 192 °C | 94% | 81%

More lines, main results first:

melting point | Structure (SMILES) | inhibition at 100 ppm [1] | inhibition at 100 ppm [2]
191 to 195 °C | O=C(Nc1ccc(Oc2ncc(C(F)(F)F)cc2Cl)cc1)c1cc([N+](=O)[O-])ccc1Br [compound 99] | 100% | 89%
175 to 180 °C | O=C(Nc1ccc(OCC23CC4CC(CC(C4)C2)C3)cc1)c1cc([N+](=O)[O-])ccc1Cl [compound 110] | 99% | 100%
178 to 180 °C | O=C(Nc1ccc(OC2C3CC4CC(C3)CC2C4)cc1)c1cc([N+](=O)[O-])ccc1Cl (stereo not drawn) [compound 111] | 99% | 99%
215 to 218 °C | O=C(Nc1ccc(Nc2ncc(C(F)(F)F)cc2Cl)cc1)c1cc([N+](=O)[O-])ccc1Cl [compound 132] | 99% | 100%
212 to 216 °C | CN(c1ccc(NC(=O)c2cc([N+](=O)[O-])ccc2Cl)cc1)c1ncc(C(F)(F)F)cc1Cl [compound 133] | 99% | 100%
178 to 181 °C | O=C(Nc1ccc(S(=O)(=O)Nc2ccccn2)cc1)c1cc([N+](=O)[O-])ccc1Cl [compound 136] | 98% | 100%
252 to 258 °C | O=C(Nc1ccc(S(=O)(=O)Nc2ncccn2)cc1)c1cc([N+](=O)[O-])ccc1Cl [compound 137] | 98% | 98%
146 to 150 °C | O=C(Nc1ccc(S(=O)(=O)NC2=NC3C=CC=CC3N=C2)cc1)c1cc([N+](=O)[O-])ccc1Cl (stereo not drawn) [compound 138] | 99% | 100%
225 to 229 °C | O=C(Nc1ccc2c(c1)CCC2)c1cc([N+](=O)[O-])ccc1Cl [compound 139] | 89% | 50%
242 to 244 °C | O=C(Nc1ccc2ncsc2c1)c1cc([N+](=O)[O-])ccc1Cl [compound 140] | 100% | 100%
217 to 221 °C | O=C(Nc1nc(-c2ccc(Cl)cc2)cs1)c1cc([N+](=O)[O-])ccc1Cl [compound 141] | 100% | 100%
140 to 147 °C | O=C(Nc1ccc(S(=O)(=O)Nc2nccs2)cc1)c1cc([N+](=O)[O-])ccc1Cl [compound 142] | 95% | 99%
165 to 172 °C | Cc1ccc(S(=O)(=O)Nc2ccc(NC(=O)c3cc([N+](=O)[O-])ccc3Cl)cc2)cc1 [compound 145] | 100% | 100%
235 to 237 °C | O=C(NS(=O)(=O)c1ccc(NC(=O)c2cc([N+](=O)[O-])ccc2Cl)cc1)c1ccccc1 [compound 146] | 62% | 43%
